# Results taken from the supplement of paper PMC6045584.
# ± gives the standard deviation of the averaged measurements.
# Key:
# [1] = compound: CCc1cc(Nc2nccc(-c3c(-c4ccc(OC)c(C(=O)Nc5c(F)cccc5F)c4)nc4ccccn34)n2)c(OC)cc1N1CCC(N2CCN(S(C)(=O)=O)CC2)CC1; assay: surviving fraction relative to DMSO-only wells; higher = less growth inhibition; conditions: exposure time: 5 days
# Method in brief: (§1)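 For each tumour cell line, log-phase cells were put into 384-well plates at 250–500 cells per well, then after 24 hours exposed continuously for five days to inhibitors at 0.5, 1, 5, 10, 50, 100, 500 and 1000 nM. Viability was assessed by CellTiter-Glo luminescence, with surviving fraction expressed relative to the median of DMSO-only wells. Lines were screened three times and retained only if replicate Pearson r exceeded 0.7 and median Z' exceeded 0.3.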
# [2] = compound: Cc1cn(-c2cc(NC(=O)c3ccc(C)c(Nc4nccc(-c5cccnc5)n4)c3)cc(C(F)(F)F)c2)cn1 [NILOTINIB]; assay: as above; conditions: exposure time: 5 days
# Method in brief: as §1
Test System,surviving fraction ([1]; 0.5 nM),surviving fraction ([1]; 1 nM),surviving fraction ([1]; 5 nM),surviving fraction ([1]; 10 nM),surviving fraction ([1]; 50 nM),surviving fraction ([1]; 100 nM),surviving fraction ([1]; 500 nM),surviving fraction ([1]; 1000 nM),surviving fraction ([2]; 0.5 nM),surviving fraction ([2]; 1 nM),surviving fraction ([2]; 5 nM),surviving fraction ([2]; 10 nM),surviving fraction ([2]; 50 nM),surviving fraction ([2]; 100 nM),surviving fraction ([2]; 500 nM),surviving fraction ([2]; 1000 nM)
HCC1395 BREAST,0.903 ± 0.1,0.903 ± 0.17,0.965 ± 0.24,0.916 ± 0.037,1.13 ± 0.2,0.831 ± 0.19,0.855 ± 0.22,0.934 ± 0.17,1.01 ± 0.038,0.988 ± 0.097,1.2 ± 0.074,1.19 ± 0.023,1.03 ± 0.055,1.03 ± 0.16,0.854 ± 0.062,0.929 ± 0.14
HCC1806 BREAST,1.05 ± 0.032,0.985 ± 0.042,1.04 ± 0.025,1.05 ± 0.1,0.993 ± 0.1,1.03 ± 0.13,0.93 ± 0.13,0.904 ± 0.085,0.977 ± 0.016,0.97 ± 0.048,1.1 ± 0.14,1.02 ± 0.067,0.844 ± 0.088,0.755 ± 0.083,0.666 ± 0.044,0.781 ± 0.026
HCC1954 BREAST,0.996 ± 0.012,0.821 ± 0.02,0.904 ± 0.12,1.1 ± 0.052,0.982 ± 0.06,1 ± 0.1,0.913 ± 0.11,0.638 ± 0.068,0.917 ± 0.15,0.891 ± 0.032,0.936 ± 0.059,0.969 ± 0.019,0.589 ± 0.0085,0.677 ± 0.12,0.8063 ± 0.0032,0.739 ± 0.077
HCT15 LARGE INTESTINE,0.963 ± 0.028,0.995 ± 0.028,0.99 ± 0.027,1.03 ± 0.03,1 ± 0.02,1.05 ± 0.016,1.12 ± 0.036,1.06 ± 0.017,1.05 ± 0.082,1.01 ± 0.071,1.07 ± 0.12,1.09 ± 0.12,1.09 ± 0.1,1.12 ± 0.037,1.05 ± 0.11,1.06 ± 0.091
HELA CERVIX,1.05 ± 0.035,1.07 ± 0.04,1.08 ± 0.027,1.09 ± 0.041,1.05 ± 0.05,1.07 ± 0.025,1.01 ± 0.066,0.97 ± 0.026,1.05 ± 0.016,1.03 ± 0.053,1.09 ± 0.034,1 ± 0.033,1.09 ± 0.079,1.06 ± 0.073,1.15 ± 0.074,1.091 ± 0.0094
HOS BONE,1.008 ± 0.004,1.028 ± 0.0032,1.06 ± 0.018,1.05 ± 0.028,1.06 ± 0.026,1.047 ± 0.0083,0.956 ± 0.017,0.89 ± 0.014,1.05 ± 0.024,1.014 ± 0.0049,1.05 ± 0.033,1.05 ± 0.025,1.065 ± 0.0095,1.04 ± 0.026,1.03 ± 0.025,1.02 ± 0.041
HOSMNG BONE,0.956 ± 0.057,0.9987 ± 0.0055,0.989 ± 0.024,1.02 ± 0.086,1 ± 0.051,1.05 ± 0.087,1.05 ± 0.061,1.05 ± 0.057,0.898 ± 0.073,0.97 ± 0.062,0.956 ± 0.044,0.937 ± 0.039,1.03 ± 0.03,0.957 ± 0.064,1.07 ± 0.029,1.22 ± 0.018
HSSYII SYNOVIAL,0.917 ± 0.021,0.933 ± 0.033,1.01 ± 0.047,0.951 ± 0.045,0.915 ± 0.043,0.958 ± 0.037,0.899 ± 0.034,0.798 ± 0.021,0.907 ± 0.018,1 ± 0.033,0.973 ± 0.015,0.987 ± 0.052,0.9 ± 0.061,0.954 ± 0.029,0.874 ± 0.029,0.785 ± 0.036
HT1080 SOFT TISSUE,1.05 ± 0.037,1.05 ± 0.023,1.02 ± 0.0067,1.03 ± 0.031,1.05 ± 0.024,1.02 ± 0.038,0.9943 ± 0.0058,0.946 ± 0.034,1.02 ± 0.058,1.04 ± 0.032,1.06 ± 0.027,1.04 ± 0.011,0.991 ± 0.02,0.978 ± 0.027,0.98 ± 0.027,0.957 ± 0.027
HU09 BONE,0.897 ± 0.047,0.949 ± 0.12,1.08 ± 0.16,1.06 ± 0.032,1.03 ± 0.063,1.1 ± 0.048,0.88 ± 0.052,0.872 ± 0.085,0.958 ± 0.043,1.06 ± 0.1,0.999 ± 0.096,1.09 ± 0.051,0.861 ± 0.19,0.756 ± 0.067,0.481 ± 0.014,0.397 ± 0.075
HUO3N1 BONE,0.94 ± 0.044,0.986 ± 0.032,1 ± 0.028,1.05 ± 0.06,1.01 ± 0.011,0.995 ± 0.052,0.947 ± 0.031,0.908 ± 0.024,0.993 ± 0.012,0.986 ± 0.048,1.12 ± 0.047,1.08 ± 0.038,0.985 ± 0.051,1 ± 0.041,1.005 ± 0.0097,0.936 ± 0.054
JIMT1 BREAST,0.977 ± 0.04,1.01 ± 0.014,1.01 ± 0.011,1.02 ± 0.017,0.992 ± 0.032,1.04 ± 0.027,1 ± 0.031,0.986 ± 0.032,0.946 ± 0.041,0.955 ± 0.045,0.975 ± 0.039,0.964 ± 0.07,0.931 ± 0.054,0.958 ± 0.086,0.97 ± 0.045,0.924 ± 0.054
JURKAT HAEMATOPOIETIC AND LYMPHOID TISSUE,1.06 ± 0.011,1.07 ± 0.029,1.06 ± 0.027,1.07 ± 0.021,1.05 ± 0.022,1.01 ± 0.029,0.973 ± 0.034,0.886 ± 0.037,1.1 ± 0.025,1.1 ± 0.027,1.07 ± 0.029,1.06 ± 0.021,1.042 ± 0.009,1.02 ± 0.044,1.04 ± 0.026,0.91 ± 0.057
KPD BONE,0.907 ± 0.066,0.947 ± 0.071,1 ± 0.021,1.03 ± 0.062,0.989 ± 0.021,1.049 ± 0.0079,0.89 ± 0.081,0.849 ± 0.036,1.04 ± 0.097,0.981 ± 0.038,1.06 ± 0.032,1.02 ± 0.026,1.03 ± 0.03,1.11 ± 0.055,0.925 ± 0.033,0.841 ± 0.028
LM7 BONE,0.918 ± 0.051,0.885 ± 0.043,0.997 ± 0.08,0.97 ± 0.074,1.1 ± 0.11,1.01 ± 0.081,0.898 ± 0.013,0.758 ± 0.03,1.02 ± 0.027,0.9597 ± 0.0087,1.07 ± 0.03,1.01 ± 0.043,0.898 ± 0.084,0.957 ± 0.076,0.79 ± 0.02,0.76 ± 0.07
LNCAP PROSTATE,0.88 ± 0.064,0.964 ± 0.16,0.996 ± 0.08,0.849 ± 0.096,0.895 ± 0.15,0.93 ± 0.19,0.882 ± 0.063,0.632 ± 0.1,1.12 ± 0.083,1.13 ± 0.12,1.08 ± 0.011,1.01 ± 0.072,1.14 ± 0.076,1.1 ± 0.15,1.16 ± 0.031,1.03 ± 0.066
MCF7 BREAST,0.857 ± 0.036,0.905 ± 0.05,0.8677 ± 0.0068,0.874 ± 0.059,0.876 ± 0.013,0.897 ± 0.05,0.844 ± 0.027,0.769 ± 0.027,0.969 ± 0.072,0.912 ± 0.05,0.948 ± 0.023,0.943 ± 0.017,0.992 ± 0.064,0.995 ± 0.073,0.942 ± 0.068,0.97 ± 0.078
MDAMB134 BREAST,1.21 ± 0.028,1.02 ± 0.034,0.988 ± 0.11,1.05 ± 0.13,1.03 ± 0.27,0.906 ± 0.12,0.882 ± 0.16,0.996 ± 0.18,0.803 ± 0.068,1.15 ± 0.12,0.865 ± 0.013,0.808 ± 0.15,0.74 ± 0.12,0.72 ± 0.099,0.672 ± 0.034,0.716 ± 0.13
MDAMB157 BREAST,0.834 ± 0.049,0.96 ± 0.15,0.973 ± 0.12,0.996 ± 0.052,0.934 ± 0.058,1.04 ± 0.094,0.94 ± 0.06,0.982 ± 0.14,1.11 ± 0.045,0.957 ± 0.047,1.09 ± 0.083,1.11 ± 0.041,1.1 ± 0.066,1.07 ± 0.018,0.932 ± 0.17,0.928 ± 0.063
MDAMB231 BREAST,0.973 ± 0.025,1 ± 0.03,1.01 ± 0.033,1.03 ± 0.017,0.962 ± 0.024,1 ± 0.019,0.906 ± 0.022,0.875 ± 0.018,0.935 ± 0.052,0.919 ± 0.025,0.866 ± 0.036,0.839 ± 0.038,0.763 ± 0.043,0.857 ± 0.017,0.923 ± 0.036,0.866 ± 0.039
MDAMB361 BREAST,0.885 ± 0.088,0.947 ± 0.053,1.04 ± 0.051,0.887 ± 0.052,0.879 ± 0.044,0.998 ± 0.045,0.826 ± 0.041,0.726 ± 0.064,0.632 ± 0.033,0.953 ± 0.057,0.69 ± 0.11,0.743 ± 0.06,0.533 ± 0.078,0.601 ± 0.059,0.619 ± 0.02,0.539 ± 0.1
